33 molecules from patent US9428464B2, “Kynurenine-3-monooxygenase inhibitors, pharmaceutical compositions, and methods of use thereof” (CHDI Foundation, Inc., priority 2011, dated 2016) can be followed below.

SMILES strings stand for the structures.

The subject of the assay is KMO. Kind of assay: KMO activity assay: L-Kynurenine hydroxylation to 3-Hydroxy-Kynurenine, quantified by LC/MS. It counts as biochemical. Conditions: compound at 10 uM; footnote: some portion of activity of amides may be due to contribution of acid precursor. Summed up:
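Enzyme: KMO from mitochondria isolated from CHO cells expressing GST-His-KMO, with L-kynurenine as substrate (stock 10 mM in 100 mM potassium phosphate, pH 7.4). Conversion to 3-hydroxy-kynurenine quantified by LC/MS multiple reaction monitoring; compound stocks 10 mM in DMSO.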

What is called % Inhibition is the change of the read-out against control, counted positive when it falls. As for `N[C@@H](CCCCNC(=O)c1cc(-c2ccc(Cl)c(Cl)c2)ncn1)C(=O)O` [(2S)-2-amino-6-{[6-(3,4-dichlorophenyl)pyrimidin-4-yl]formamido}hexanoic acid], the “% Inhibition at 10 uM” value worked out at 85%.
The value for `O=C1NC(=O)[C@@H]2CN(C(=O)c3cc(-c4ccc(Cl)c(Cl)c4)ncn3)C[C@H]12` [(3aS,6aR)-5-[6-(3,4-Dichloro-phenyl)-pyrimidine-4-carbonyl]-tetrahydro-pyrrolo[3,4-c]pyrrole-1,3-dione] was 95.73%.
For the molecule `O=C(c1cc(-c2ccc(Cl)c(Cl)c2)ncn1)N1CCc2ccc(Cl)cc21` [(6-Chloro-2,3-dihydro-indol-1-yl)-[6-(3,4-dichloro-phenyl)-pyrimidin-4-yl]-methanone], the “% Inhibition at 10 uM” value is reported as 98.22%.
Consider `N[C@H]1CCN(C(=O)c2cc(-c3ccc(Cl)c(Cl)c3)ncn2)C1` [((S)-3-amino-pyrrolidin-1-yl)-[6-(3,4-dichloro-phenyl)-pyrimidin-4-yl]-methanone], for which the “% Inhibition at 10 uM” value is recorded as 93.99%.
Take `NC(=O)[C@H]1CCCN1C(=O)c1cc(-c2ccc(Cl)c(Cl)c2)ncn1` [(R)-1-[6-(3,4-Dichloro-phenyl)-pyrimidine-4-carbonyl]-pyrrolidine-2-carboxylic acid amide]: the “% Inhibition at 10 uM” value was determined as 101%.
The value for `O=C(N[C@H](CO)C(=O)O)c1cc(-c2ccc(Cl)c(Cl)c2)ncn1` [(R)-2-{[6-(3,4-Dichloro-phenyl)-pyrimidine-4-carbonyl]-amino}-3-hydroxy-propionic acid] was 91.12%; that for `NC(=O)[C@@H]1CCCN1C(=O)c1cc(-c2ccc(Cl)c(Cl)c2)ncn1` [(S)-1-[6-(3,4-Dichloro-phenyl)-pyrimidine-4-carbonyl]-pyrrolidine-2-carboxylic acid amide] was 99.05%.
The value for `O=C(N[C@@H](CO)C(=O)O)c1cc(-c2ccc(Cl)c(Cl)c2)ncn1` [(S)-2-{[6-(3,4-Dichloro-phenyl)-pyrimidine-4-carbonyl]-amino}-3-hydroxy-propionic acid] was 101.22%; that for `C[C@H](NC(=O)c1cc(-c2ccc(Cl)c(Cl)c2)ncn1)C(=O)O` [(S)-2-{[6-(3,4-Dichloro-phenyl)-pyrimidine-4-carbonyl]-amino}-propionic acid] was 100.865%.
For the molecule `O=S(=O)(Nc1cc(-c2ccc(Cl)c(Cl)c2)ccn1)c1ccccc1` [N-[4-(3,4-dichlorophenyl)pyridin-2-yl]benzenesulfonamide], the “% Inhibition at 10 uM” value is given as 17%.
The value for `Cc1ccc(S(=O)(=O)Nc2cc(-c3ccc(Cl)c(Cl)c3)ncn2)c(C)c1` [N-[6-(3,4-dichlorophenyl)pyrimidin-4-yl]-2,4-dimethylbenzene-1-sulfonamide] was 56%; that for `O=S(=O)(Nc1cc(-c2ccc(Cl)c(Cl)c2)ncn1)c1ccccc1F` [N-[6-(3,4-dichlorophenyl)pyrimidin-4-yl]-2-fluorobenzene-1-sulfonamide] was 103%; that for `O=S(=O)(Nc1cc(-c2ccc(Cl)c(Cl)c2)ncn1)c1cccc(OC(F)(F)F)c1` [N-[6-(3,4-dichlorophenyl)pyrimidin-4-yl]-3-(trifluoromethoxy)benzene-1-sulfonamide] was 100%.
The value for `O=S(=O)(Nc1cc(-c2ccc(Cl)c(Cl)c2)ncn1)c1cccc(F)c1` [N-[6-(3,4-dichlorophenyl)pyrimidin-4-yl]-3-fluorobenzene-1-sulfonamide] was 102%.
Take `CN(c1cc(-c2ccc(Cl)c(Cl)c2)ncn1)S(=O)(=O)c1ccccc1` [N-[6-(3,4-dichlorophenyl)pyrimidin-4-yl]-N-methylbenzenesulfonamide]: the “% Inhibition at 10 uM” value was found to be 27%.
Next, `O=S(=O)(Nc1cc(-c2ccc(F)c(Cl)c2)ncn1)c1ccccc1` [N-[6-(3-Chloro-4-fluoro-phenyl)-pyrimidin-4-yl]-benzenesulfonamide]: 98%; `O=C(NS(=O)(=O)c1ccccc1)c1cc(-c2cccc(Cl)c2)ncn1` [N-[6-(3-Chloro-phenyl)-pyrimidine-4-carbonyl]-benzenesulfonamide]: 100.67%.
For `CS(=O)(=O)NC(=O)c1cc(-c2cccc(Cl)c2)ncn1` [N-[6-(3-Chloro-phenyl)-pyrimidine-4-carbonyl]-methanesulfonamide], the “% Inhibition at 10 uM” value came out at 101.58%.
Next, `O=S(=O)(Nc1cc(-c2ccc(F)c(Cl)c2)ncn1)c1ccccc1F` [N-[6-(3-chloro-4-fluorophenyl)pyrimidin-4-yl]-2-fluorobenzene-1-sulfonamide]: 100%.
Next, `CC(=O)N[C@@H]1CCN(C(=O)c2cc(-c3ccc(Cl)c(Cl)c3)ncn2)C1` [N-{(R)-1-[6-(3,4-Dichloro-phenyl)-pyrimidine-4-carbonyl]-pyrrolidin-3-yl}-acetamide]: 98.55%; `CN(C)CCC(=O)N[C@H]1CCN(C(=O)c2cc(-c3ccc(Cl)c(Cl)c3)ncn2)C1` [N-{(S)-1-[6-(3,4-Dichloro-phenyl)-pyrimidine-4-carbonyl]-pyrrolidin-3-yl}-3-dimethylamino-propionamide]: 91.785%; `CC(=O)N[C@H]1CCN(C(=O)c2cc(-c3ccc(Cl)c(Cl)c3)ncn2)C1` [N-{(S)-1-[6-(3,4-Dichloro-phenyl)-pyrimidine-4-carbonyl]-pyrrolidin-3-yl}-acetamide]: 100.27%.
Next, `CN1CCN(C(=O)c2cc(-c3ccc(Cl)c(Cl)c3)ncn2)CC1` [[6-(3,4-Dichloro-phenyl)-pyrimidin-4-yl]-(4-methyl-piperazin-1-yl)-methanone]: 94.86%.
Regarding `O=C(c1cc(-c2ccc(Cl)c(Cl)c2)ncn1)N1CCc2ccc(F)cc21` [[6-(3,4-Dichloro-phenyl)-pyrimidin-4-yl]-(6-fluoro-2,3-dihydro-indol-1-yl)-methanone], the “% Inhibition at 10 uM” value was determined as 100.71%.
As to `C[C@@H]1CN(C(=O)c2cc(-c3ccc(Cl)c(Cl)c3)ncn2)C[C@H](C)N1.O=C(O)C(F)(F)F` [[6-(3,4-Dichloro-phenyl)-pyrimidin-4-yl]-((3S,5R)-3,5-dimethyl-piperazin-1-yl)-methanone, trifluoro-acetic acid salt], the “% Inhibition at 10 uM” value was 95.92%.
Next, `O=C(c1cc(-c2ccc(Cl)c(Cl)c2)ncn1)N1CCC[C@@H](O)C1` [[6-(3,4-Dichloro-phenyl)-pyrimidin-4-yl]-((R)-3-hydroxy-piperidin-1-yl)-methanone]: 99.86%; `O=C(c1cc(-c2ccc(Cl)c(Cl)c2)ncn1)N1CC[C@@H](O)C1` [[6-(3,4-Dichloro-phenyl)-pyrimidin-4-yl]-((R)-3-hydroxy-pyrrolidin-1-yl)-methanone]: 101.49%; `O=C(c1cc(-c2ccc(Cl)c(Cl)c2)ncn1)N1CCC[C@H](O)C1` [[6-(3,4-Dichloro-phenyl)-pyrimidin-4-yl]-((S)-3-hydroxy-piperidin-1-yl)-methanone]: 99.98%.
Next, `O=C(c1cc(-c2ccc(Cl)c(Cl)c2)ncn1)N1CCC(C(=O)N2CCOCC2)C1` (stereo not drawn) [[6-(3,4-Dichloro-phenyl)-pyrimidin-4-yl]-[3-(morpholine-4-carbonyl)-pyrrolidin-1-yl]-methanone]: 90.83%; `O=C(c1cc(-c2ccc(Cl)c(Cl)c2)ncn1)N1CCN(C(=O)N2CCOCC2)CC1` [[6-(3,4-Dichloro-phenyl)-pyrimidin-4-yl]-[4-(morpholine-4-carbonyl)-piperazin-1-yl]-methanone]: 40.38%.
Consider `O=C(c1cc(-c2ccc(Cl)c(Cl)c2)ncn1)N1CCNCC1` [[6-(3,4-dichloro-phenyl)-pyrimidin-4-yl]-piperazin-1-yl-methanone], for which the “% Inhibition at 10 uM” value is 71.34%.
As to `CCCCOC(=O)c1cc(-c2ccc(Cl)c(Cl)c2)ncn1` [butyl 6-(3,4-dichlorophenyl)pyrimidine-4-carboxylate], the “% Inhibition at 10 uM” value is reported as 100%.
Next, `CC(C)OC(=O)c1cc(-c2ccc(Cl)c(Cl)c2)ncn1` [propan-2-yl 6-(3,4-dichlorophenyl)pyrimidine-4-carboxylate]: 100%.
